This passage reports IC50 results from patent US20130018033A1, “RAF INHIBITOR COMPOUNDS AND METHODS OF USE THEREOF” (ARRAY BIOPHARMA INC., priority 2009, published 2013).

The structures appear in SMILES notation. Read-outs that look alike come from different tables or passages of the source.

The target in one test is T1, V600E full-length B-Raf (Homo sapiens, UniProt P15056, V600E).
T1 construct: 1 μM FSBA-MEK and 20 nM V600E full-length B-Raf; made in house; host or cells: Sf9 insect cells (baculovirus)
T1 sequence (P15056 whole entry V600E): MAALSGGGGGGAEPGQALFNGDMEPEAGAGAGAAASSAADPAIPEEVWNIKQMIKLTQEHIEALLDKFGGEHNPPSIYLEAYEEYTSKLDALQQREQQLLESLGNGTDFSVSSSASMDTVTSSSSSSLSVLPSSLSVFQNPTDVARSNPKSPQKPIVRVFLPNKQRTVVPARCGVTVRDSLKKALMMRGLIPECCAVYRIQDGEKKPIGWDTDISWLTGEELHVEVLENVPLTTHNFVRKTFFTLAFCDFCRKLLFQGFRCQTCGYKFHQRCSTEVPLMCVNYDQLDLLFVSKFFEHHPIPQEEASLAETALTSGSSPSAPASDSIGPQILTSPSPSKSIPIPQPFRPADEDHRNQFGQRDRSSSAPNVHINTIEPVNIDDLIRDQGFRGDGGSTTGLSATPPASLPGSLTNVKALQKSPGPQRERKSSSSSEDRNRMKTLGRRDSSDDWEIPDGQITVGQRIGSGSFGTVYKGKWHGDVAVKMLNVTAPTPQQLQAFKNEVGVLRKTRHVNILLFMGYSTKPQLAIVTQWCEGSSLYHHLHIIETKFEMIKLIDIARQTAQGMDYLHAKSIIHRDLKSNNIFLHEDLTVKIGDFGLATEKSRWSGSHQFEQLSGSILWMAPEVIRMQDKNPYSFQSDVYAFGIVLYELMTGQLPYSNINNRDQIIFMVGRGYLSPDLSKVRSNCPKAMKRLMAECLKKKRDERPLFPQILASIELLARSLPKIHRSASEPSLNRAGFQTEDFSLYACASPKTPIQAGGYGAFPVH
As to the kind of experiment: B-Raf IC50 assay (Example A). The class given is biochemical. The essentials:
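Sf9-expressed full-length V600E B-Raf (20 nM) phosphorylated 1 µM FSBA-modified wild-type MEK with 4 µM ATP plus [γ-33P]ATP in 25 mM Pipes pH 7.2, 100 mM KCl, 10 mM MgCl2. Enzyme and substrate were preincubated 15 min, and the reaction ran 60 min at 22 °C. It was TCA-quenched and filter-captured, and incorporated radioactivity was scintillation-counted.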

Test [1] concerns basal ERK1/2 phosphorylation in Malme-3M cells. As to the kind of experiment: Cellular ERK 1/2 phosphorylation assay (Example A1). The class given is cell-based. The note with it: Homo sapiens, 1 hour incubation, pERK normalized to total ERK, read-out: P-ERK Malme3-M IC50. In outline: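 Malme-3M cells (24,000/well, RPMI-1640 with 10% FBS) were treated with compounds for 1 h at 37 °C, 1% DMSO final. Fixed, methanol-permeabilized cells were immunostained for pERK and total ERK and read by infrared fluorescence. pERK signal was normalized to total ERK.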

Where [2] appears, read: B-Raf V600E assay of Example A, read-out: IC50.
[3] abbreviates: [γ-33P]ATP incorporation into FSBA-MEK, 4 μM ATP, read-out: BRAF V600E IC50.

Turning to `CCCS(=O)(=O)Nc1ccc(Cl)c(NC(=O)c2cccc3cncnc23)c1F` [Example 58, Quinazoline-8-carboxylic acid [6-chloro-2-fluoro-3-(propane-1-sulfonylamino)-phenyl]-amide], the IC50 on V600E full-length B-Raf (setting [2]) is under 0.1 µM; on V600E full-length B-Raf (setting [3]), 0.0171 µM; in test [1], 0.301 µM.

As to `O=C(Nc1c(Cl)ccc(NS(=O)(=O)CCCF)c1F)c1cccc2cncnc12` [Example 59, Quinazoline-8-carboxylic acid [6-chloro-2-fluoro-3-(3-fluoro-propane-1-sulfonylamino)-phenyl]-amide], the values for the half-maximal inhibitory concentration (IC50) (at V600E full-length B-Raf (setting [2]); at V600E full-length B-Raf (setting [3]); in test [1]) were under 0.1 µM, 0.00149 µM and 0.0837 µM, respectively.

For `Cc1ncnc2c(C(=O)Nc3c(Cl)ccc(NS(=O)(=O)CCCF)c3Cl)cccc12` [Example 60, 4-Methyl-quinazoline-8-carboxylic acid [2,6-dichloro-3-(3-fluoro-propane-1-sulfonylamino)-phenyl]-amide], the half-inhibitory concentration (IC50) was under 0.1 µM at V600E full-length B-Raf (setting [2]), 0.00082 µM at V600E full-length B-Raf (setting [3]) and 0.0534 µM in test [1].

As for `Cc1ncnc2c(C(=O)Nc3c(F)ccc(NS(=O)(=O)CCCF)c3F)cccc12` [Example 61, 4-Methyl-quinazoline-8-carboxylic acid [2,6-difluoro-3-(3-fluoro-propane-1-sulfonylamino)-phenyl]-amide], the half-inhibitory concentration (IC50) at V600E full-length B-Raf (setting [2]) was under 0.1 µM; on V600E full-length B-Raf (setting [3]), 0.0193 µM; in test [1], 0.116 µM.

In the case of `Cc1ncnc2c(C(=O)Nc3c(Cl)ccc(NS(=O)(=O)CCCF)c3F)cccc12` [Example 62, 4-Methyl-quinazoline-8-carboxylic acid [6-chloro-2-fluoro-3-(3-fluoro-propane-1-sulfonylamino)-phenyl]-amide], the IC50 on V600E full-length B-Raf (setting [2]) was under 0.1 µM; at V600E full-length B-Raf (setting [3]), 0.00307 µM; in test [1], 0.044 µM.

Consider `CCCS(=O)(=O)Nc1ccc(F)c(NC(=O)c2ccnc3c(N)ncnc23)c1Cl` [Example 63, 4-Amino-pyrido[3,2-d]pyrimidine-8-carboxylic acid [2-chloro-6-fluoro-3-(propane-1-sulfonylamino)-phenyl]-amide], for which the IC50 on V600E full-length B-Raf (setting [2]) was under 0.1 µM; on V600E full-length B-Raf (setting [3]) it was 0.00101 µM; in test [1] it was 0.0076 µM.

For `CCCS(=O)(=O)Nc1ccc(F)c(NC(=O)c2ccnc3c(N)ncnc23)c1F` [Example 64, 4-Amino-pyrido[3,2-d]pyrimidine-8-carboxylic acid [2,6-difluoro-3-(propane-1-sulfonylamino)-phenyl]-amide], the figures for the IC50 (on V600E full-length B-Raf (setting [2]); on V600E full-length B-Raf (setting [3]); in test [1]) were under 0.1 µM, 0.00311 µM and 0.0097 µM, respectively.

With `CCCS(=O)(=O)Nc1ccc(Cl)c(NC(=O)c2ccnc3c(N)ncnc23)c1F` [Example 65, 4-Amino-pyrido[3,2-d]pyrimidine-8-carboxylic acid [6-chloro-2-fluoro-3-(propane-1-sulfonylamino)-phenyl]-amide], the IC50 on V600E full-length B-Raf (setting [2]) was under 0.1 µM; on V600E full-length B-Raf (setting [3]), 0.00114 µM; in test [1], 0.0094 µM.

Consider `Nc1ncnc2c(C(=O)Nc3c(F)ccc(NS(=O)(=O)CCCF)c3F)ccnc12` [Example 66, 4-Amino-pyrido[3,2-d]pyrimidine-8-carboxylic acid [2,6-difluoro-3-(3-fluoro-propane-1-sulfonylamino)-phenyl]-amide], for which the half-inhibitory concentration (IC50) was under 0.1 µM at V600E full-length B-Raf (setting [2]), 0.00075 µM at V600E full-length B-Raf (setting [3]) and 0.00304 µM in test [1].

As to `Nc1ncnc2c(C(=O)Nc3c(Cl)ccc(NS(=O)(=O)CCCF)c3F)ccnc12` [Example 67, 4-Amino-pyrido[3,2-d]pyrimidine-8-carboxylic acid [6-chloro-2-fluoro-3-(3-fluoro-propane-1-sulfonylamino)-phenyl]-amide], the IC50 was under 0.1 µM on V600E full-length B-Raf (setting [2]), 0.00042 µM on V600E full-length B-Raf (setting [3]) and 0.0028 µM in test [1].

For `NC(=O)c1ccc(NS(=O)(=O)CCCF)c(F)c1NC(=O)c1ccnc2c(N)ncnc12` [Example 68, 4-Amino-pyrido[3,2-d]pyrimidine-8-carboxylic acid [6-carbamoyl-2-fluoro-3-(3-fluoro-propane-1-sulfonylamino)-phenyl]-amide], the values for the half-maximal inhibitory concentration (IC50) (at V600E full-length B-Raf (setting [2]); at V600E full-length B-Raf (setting [3]); in test [1]) were under 0.1 µM, 0.0145 µM and 0.124 µM, respectively.
